Molecules are shown by their SMILES.

Data on four molecules can be found in publication PMC4859410 (Pharmacogenetics and genomics, 2010).

Holding throughout (type): in vitro ADME
Data set [1] addresses T1, OATP1A2 (Homo sapiens, UniProt P46721).
T1 sequence (P46721 1-670): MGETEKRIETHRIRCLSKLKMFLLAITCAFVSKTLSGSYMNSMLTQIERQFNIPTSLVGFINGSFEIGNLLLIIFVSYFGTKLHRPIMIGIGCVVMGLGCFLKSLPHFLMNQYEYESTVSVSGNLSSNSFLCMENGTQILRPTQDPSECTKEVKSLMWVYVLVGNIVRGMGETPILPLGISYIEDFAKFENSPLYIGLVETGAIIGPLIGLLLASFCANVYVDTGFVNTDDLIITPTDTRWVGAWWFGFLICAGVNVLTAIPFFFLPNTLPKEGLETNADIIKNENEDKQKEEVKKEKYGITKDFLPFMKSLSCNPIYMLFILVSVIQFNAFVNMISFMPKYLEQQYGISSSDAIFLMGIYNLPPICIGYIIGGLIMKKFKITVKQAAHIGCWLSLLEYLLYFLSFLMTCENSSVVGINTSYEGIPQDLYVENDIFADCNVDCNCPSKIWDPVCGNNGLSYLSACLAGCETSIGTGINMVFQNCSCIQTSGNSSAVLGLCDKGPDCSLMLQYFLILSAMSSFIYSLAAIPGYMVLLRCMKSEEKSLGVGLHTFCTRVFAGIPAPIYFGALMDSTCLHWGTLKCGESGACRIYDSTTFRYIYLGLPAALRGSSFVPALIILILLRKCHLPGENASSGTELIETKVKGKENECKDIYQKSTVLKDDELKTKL
The experiment in a line: Drug uptake in X. laevis oocytes injected with SLCO1A2. The following applies: for Drug uptake, OATP1A2: OATP1A2 cRNA injected oocytes; for Drug uptake, OATP1A2 / Drug uptake, Water: 1 µM (darunavir 3 µM), 18°C, 1hr, mean ± SD; for Drug uptake, Water: water injected control oocytes (Table 1); for Accumulation in SLCO1A2 cRNA injected oocytes compared to water injected control oocytes (in words): in the presence and in the absence of 2% HSA; for Ratio (fold increase in OATP1A2 cRNA injected oocytes compared to water injected oocytes): * = P < 0.05.

The target in data set [2] is T2, OATP1B1 (Homo sapiens, UniProt Q9Y6L6).
T2 sequence (Q9Y6L6 1-691): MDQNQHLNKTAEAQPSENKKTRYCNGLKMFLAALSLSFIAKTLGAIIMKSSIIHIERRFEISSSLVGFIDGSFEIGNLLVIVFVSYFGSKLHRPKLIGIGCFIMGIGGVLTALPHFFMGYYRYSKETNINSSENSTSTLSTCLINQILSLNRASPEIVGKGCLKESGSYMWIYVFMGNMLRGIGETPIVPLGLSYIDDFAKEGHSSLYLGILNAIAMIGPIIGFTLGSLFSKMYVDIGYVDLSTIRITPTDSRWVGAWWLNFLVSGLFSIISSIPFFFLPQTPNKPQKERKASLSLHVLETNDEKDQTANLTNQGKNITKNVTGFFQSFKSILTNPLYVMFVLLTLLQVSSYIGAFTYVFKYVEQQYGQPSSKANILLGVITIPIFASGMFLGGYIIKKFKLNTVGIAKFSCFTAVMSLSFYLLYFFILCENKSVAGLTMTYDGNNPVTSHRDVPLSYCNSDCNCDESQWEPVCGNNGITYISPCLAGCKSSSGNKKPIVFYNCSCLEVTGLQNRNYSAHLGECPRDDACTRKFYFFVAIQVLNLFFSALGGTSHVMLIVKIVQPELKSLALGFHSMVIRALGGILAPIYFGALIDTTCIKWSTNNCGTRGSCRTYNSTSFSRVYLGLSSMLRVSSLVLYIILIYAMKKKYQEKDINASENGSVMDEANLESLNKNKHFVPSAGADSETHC
In words: Drug uptake in X. laevis oocytes injected with SLCO1B1. Conditions: for Drug uptake, OATP1B1: OATP1B1 cRNA injected oocytes; for Drug uptake, OATP1B1 / Drug uptake, Water: 1 µM (darunavir 3 µM), 18°C, 1hr, mean ± SD; for Drug uptake, Water: water injected control oocytes (Table 2); for Accumulation in SLCO1B1 cRNA injected oocytes compared to water injected control oocytes (in words): in the presence and in the absence of 2% HSA; for Ratio (fold increase in OATP1B1 cRNA injected oocytes compared to water injected oocytes): * = P < 0.05.

For data set [3], the target named is T3, OATP1B3 (Homo sapiens, UniProt Q9NPD5).
T3 sequence (Q9NPD5 1-702): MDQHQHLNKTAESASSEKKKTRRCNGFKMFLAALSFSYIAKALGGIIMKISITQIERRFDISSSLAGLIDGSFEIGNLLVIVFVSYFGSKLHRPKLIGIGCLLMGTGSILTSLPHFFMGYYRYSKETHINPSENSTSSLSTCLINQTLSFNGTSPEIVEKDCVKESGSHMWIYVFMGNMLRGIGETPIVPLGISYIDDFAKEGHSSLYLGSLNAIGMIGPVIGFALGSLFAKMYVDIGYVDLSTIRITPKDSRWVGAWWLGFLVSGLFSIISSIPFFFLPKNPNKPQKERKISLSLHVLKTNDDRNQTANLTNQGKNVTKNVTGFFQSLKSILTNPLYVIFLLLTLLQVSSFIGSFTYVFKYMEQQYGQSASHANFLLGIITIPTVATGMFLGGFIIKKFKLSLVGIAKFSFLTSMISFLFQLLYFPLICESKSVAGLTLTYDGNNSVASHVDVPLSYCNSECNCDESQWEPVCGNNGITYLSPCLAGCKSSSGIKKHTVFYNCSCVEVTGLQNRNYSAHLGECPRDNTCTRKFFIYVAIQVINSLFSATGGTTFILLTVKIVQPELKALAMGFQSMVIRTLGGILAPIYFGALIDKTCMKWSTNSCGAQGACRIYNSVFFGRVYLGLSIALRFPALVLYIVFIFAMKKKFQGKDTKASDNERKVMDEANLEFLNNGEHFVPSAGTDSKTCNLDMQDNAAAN
In words: Drug uptake in X. laevis oocytes injected with SLCO1B3. The following applies: without human serum albumin; for Drug uptake, OATP1B3: OATP1B3 cRNA injected oocytes; for Drug uptake, OATP1B3 / Drug uptake, Water: 1 µM (darunavir 3 µM, performed once), 18°C, 1hr, mean ± SD; for Drug uptake, Water: water injected control oocytes (Table 3); for Ratio (fold increase in OATP1B3 cRNA injected oocytes compared to water injected oocytes): * = P < 0.05.

For `CC(C)CN(C[C@@H](O)[C@H](Cc1ccccc1)NC(=O)O[C@H]1CO[C@H]2OCC[C@H]21)S(=O)(=O)c1ccc(N)cc1` [Darunavir, darunavir], the “Drug uptake, OATP1A2” value in data set [1] (with 2% human serum albumin) came to 2.56 ± 0.78 pmol/oocyte; in data set [1] (without human serum albumin) it was 4.32 ± 0.75 pmol/oocyte. Also, the “Drug uptake, Water” value in data set [1] (with 2% human serum albumin) stood at 0.96 ± 0.37 pmol/oocyte; in data set [1] (without human serum albumin) it was 2.18 ± 0.40 pmol/oocyte; in data set [2] (with 2% human serum albumin), 0.72 ± 0.18 pmol/oocyte; in data set [2] (without human serum albumin) it was 2.12 ± 0.55 pmol/oocyte; in data set [3], 3.29 pmol/oocyte. Besides, the “Drug uptake, OATP1B1” value in data set [2] (with 2% human serum albumin) was 2.14 ± 0.82 pmol/oocyte; in data set [2] (without human serum albumin), 4.13 ± 0.40 pmol/oocyte. Besides, the “Drug uptake, OATP1B3” value in data set [3] was 5.41 pmol/oocyte.

On to `O=C1Nc2ccc(Cl)cc2[C@@](C#CC2CC2)(C(F)(F)F)O1` [Efavirenz, efavirenz], for which, in data set [1] (with 2% human serum albumin), the “Drug uptake, OATP1A2” value was 1.63 ± 0.24 pmol/oocyte; the “Drug uptake, Water” value amounted to 1.47 ± 0.28 pmol/oocyte; the “Ratio (fold increase in OATP1A2 cRNA injected oocytes compared to water injected oocytes)” value is recorded as 1.11. For the same molecule, in data set [1] (without human serum albumin), the “Drug uptake, OATP1A2” value amounted to 10.3 ± 2.90 pmol/oocyte; the “Drug uptake, Water” value is listed as 12.6 ± 2.49 pmol/oocyte; the “Ratio (fold increase in OATP1A2 cRNA injected oocytes compared to water injected oocytes)” value was found to be 0.81. The “Accumulation in SLCO1A2 cRNA injected oocytes compared to water injected control oocytes (in words)” value in data set [1] is on record as “No significant increase”. Also, in data set [2] (with 2% human serum albumin), the “Drug uptake, OATP1B1” value amounted to 1.51 ± 0.12 pmol/oocyte; the “Drug uptake, Water” value turned out to be 1.46 ± 0.21 pmol/oocyte; the “Ratio (fold increase in OATP1B1 cRNA injected oocytes compared to water injected oocytes)” value came out at 1.03. Moreover, in data set [2] (without human serum albumin), the “Drug uptake, OATP1B1” value is 16.0 ± 4.17 pmol/oocyte; the “Drug uptake, Water” value was determined as 15.9 ± 1.70 pmol/oocyte; the “Ratio (fold increase in OATP1B1 cRNA injected oocytes compared to water injected oocytes)” value is reported as 1.00. In addition, the “Accumulation in SLCO1B1 cRNA injected oocytes compared to water injected control oocytes (in words)” value in data set [2] is reported as “No significant increase”. In data set [3], the “Drug uptake, OATP1B3” value came out at 18.21 ± 6.21 pmol/oocyte; the “Drug uptake, Water” value came to 16.56 ± 6.84 pmol/oocyte; the “Accumulation in SLCO1B3 cRNA injected oocytes compared to water injected control (in words)” value is reported as “No significant increase”; the “Ratio (fold increase in OATP1B3 cRNA injected oocytes compared to water injected oocytes)” value was 1.10.

Regarding `Cc1ccnc2c1NC(=O)c1cccnc1N2C1CC1` [Nevirapine, nevirapine], in data set [1] (with 2% human serum albumin), the “Drug uptake, OATP1A2” value is given as 2.17 ± 0.26 pmol/oocyte; the “Drug uptake, Water” value stood at 2.23 ± 0.93 pmol/oocyte; the “Ratio (fold increase in OATP1A2 cRNA injected oocytes compared to water injected oocytes)” value is 0.97. Further, in data set [1] (without human serum albumin), the “Drug uptake, OATP1A2” value worked out at 2.92 ± 0.59 pmol/oocyte; the “Drug uptake, Water” value was 2.65 ± 0.54 pmol/oocyte; the “Ratio (fold increase in OATP1A2 cRNA injected oocytes compared to water injected oocytes)” value was 1.10. Moreover, the “Accumulation in SLCO1A2 cRNA injected oocytes compared to water injected control oocytes (in words)” value in data set [1] is “No significant increase”. Further, in data set [2] (with 2% human serum albumin), the “Drug uptake, OATP1B1” value came out at 2.01 ± 0.40 pmol/oocyte; the “Drug uptake, Water” value worked out at 1.80 ± 0.46 pmol/oocyte; the “Ratio (fold increase in OATP1B1 cRNA injected oocytes compared to water injected oocytes)” value is 1.12. Besides, in data set [2] (without human serum albumin), the “Drug uptake, OATP1B1” value is 2.26 ± 0.20 pmol/oocyte; the “Drug uptake, Water” value was 2.14 ± 0.22 pmol/oocyte; the “Ratio (fold increase in OATP1B1 cRNA injected oocytes compared to water injected oocytes)” value worked out at 1.06. Further, in data set [2], the “Accumulation in SLCO1B1 cRNA injected oocytes compared to water injected control oocytes (in words)” value was “No significant increase”. For the same molecule, in data set [3], the “Drug uptake, OATP1B3” value turned out to be 3.12 ± 0.47 pmol/oocyte; the “Drug uptake, Water” value stood at 2.98 ± 0.59 pmol/oocyte; the “Accumulation in SLCO1B3 cRNA injected oocytes compared to water injected control (in words)” value is “No significant increase”; the “Ratio (fold increase in OATP1B3 cRNA injected oocytes compared to water injected oocytes)” value is given as 1.05.

`C[C@]12CC[C@@H]3c4ccc(OS(=O)(=O)O)cc4CC[C@H]3[C@@H]1CCC2=O` [estrone-3-sulphate]: in data set [1] (with 2% human serum albumin), the “Drug uptake, OATP1A2” value worked out at 0.35 ± 0.15 pmol/oocyte; the “Drug uptake, Water” value is reported as 0.10 ± 0.03 pmol/oocyte; the “Ratio (fold increase in OATP1A2 cRNA injected oocytes compared to water injected oocytes)” value is recorded as 3.55 *. Besides, in data set [1] (without human serum albumin), the “Drug uptake, OATP1A2” value was determined as 2.02 ± 0.52 pmol/oocyte; the “Drug uptake, Water” value amounted to 0.19 ± 0.05 pmol/oocyte; the “Ratio (fold increase in OATP1A2 cRNA injected oocytes compared to water injected oocytes)” value is recorded as 10.9 *. Further, the “Accumulation in SLCO1A2 cRNA injected oocytes compared to water injected control oocytes (in words)” value in data set [1] was “significant increase in accumulation”. In data set [2] (with 2% human serum albumin), the “Drug uptake, OATP1B1” value amounted to 0.15 ± 0.03 pmol/oocyte; the “Drug uptake, Water” value is recorded as 0.08 ± 0.03 pmol/oocyte; the “Ratio (fold increase in OATP1B1 cRNA injected oocytes compared to water injected oocytes)” value was 1.90 *. In addition, in data set [2] (without human serum albumin), the “Drug uptake, OATP1B1” value worked out at 0.51 ± 0.17 pmol/oocyte; the “Drug uptake, Water” value worked out at 0.16 ± 0.04 pmol/oocyte; the “Ratio (fold increase in OATP1B1 cRNA injected oocytes compared to water injected oocytes)” value is listed as 3.21 *. Further, in data set [2], the “Accumulation in SLCO1B1 cRNA injected oocytes compared to water injected control oocytes (in words)” value is on record as “significant increase in accumulation”. In data set [3], the “Drug uptake, OATP1B3” value is 0.50 ± 0.20 pmol/oocyte; the “Drug uptake, Water” value turned out to be 0.21 ± 0.01 pmol/oocyte; the “Accumulation in SLCO1B3 cRNA injected oocytes compared to water injected control (in words)” value is on record as “trend towards increased accumulation”.
